Assay results published in US6562828B1, “Amidine compounds” (Japan Tobacco Inc., priority 1998, dated 2003).
Structures can show the parent of a compound that is named as a salt.

Key:
[1] = molecular target: T1, Human FXa (Homo sapiens, UniProt P00742); assay: Oral administration test in mouse, human FXa inhibitory activity in serum; format: in vivo; settings: ICR mice, mean ± S.D., n = 3
T1 construct: Human FXa [Enzyme research Laboratories (USA)] enzyme; purchased Enzyme Research Laboratories (USA)
Method: Human FXa inhibitory activity was measured as follows. Human FXa [Enzyme research Laboratories (USA)] enzyme (40 μl, 0.5 U/ml) and a 4-fold diluted plasma sample (40 μl) were incubated in 0.1M Tris-0.2M NaCl buffer (pH 8.4) (40 μl) at 37° C. for 10 min. A synthetic substrate S-2222 (Daiichi Pure Chemical (Tokyo, Japan), 40 μl) adjusted to 0.8 mM was added and the mixture was incubated at 37° C. for 5 min. The reaction was stopped by addition of 60% acetic acid (40 μl) and absorbance at 405 nm was measured by Model 3550 (BIO-RAD). For the control, serum or plasma obtained prior to blood sampling was used for measurement. Human FXa inhibitory activity was calculated as inhibition percentage (%) against control.
Oral Administration Tests in Mouse
A test compound dissolved in distilled water was orally administered to ICR mice (body weight 20-30 g, 4-6 weeks old) and the activity of the test compound was evaluated based on the human FXa inhibitory activity in serum as an indicator.
At 30, 60, 120, 180 min from the oral administration, blood was taken from the eye ground using a hematocrit tube. The blood was centrifuged at 9000 G for 5 min and the obtained serum was used for the determination. Human FXa inhibitory activity was determined in the same manner as in the test by intravenous administration.

[2] = test system: normal plasma; assay: Determination of prothrombin time (PT), mouse plasma; format: biochemical
Method: Determination of prothrombin time (PT)
Blood was taken from mouse, rat, crab-eating monkey and healthy human volunteers, and citric acid was added. The blood was centrifuged at 4° C. and 2000 G for 15 min to obtain normal plasma of various animals.
Purified water (5 μl) containing various concentrations of test compound was added to plasma (45 μl) and the resultant mixtures were used as samples. […] (Baxter) was prepared and heated at […] for 5 min, and a sample (50 μl) was admixed with the thrombin reagent (100 μl). The time (PT) until precipitation of fibrin was measured. The drug concentration that doubled the PT hours of the drug untreated group was calculated and taken as CT2.

T1 sequence (P00742 235-488 limits assumed): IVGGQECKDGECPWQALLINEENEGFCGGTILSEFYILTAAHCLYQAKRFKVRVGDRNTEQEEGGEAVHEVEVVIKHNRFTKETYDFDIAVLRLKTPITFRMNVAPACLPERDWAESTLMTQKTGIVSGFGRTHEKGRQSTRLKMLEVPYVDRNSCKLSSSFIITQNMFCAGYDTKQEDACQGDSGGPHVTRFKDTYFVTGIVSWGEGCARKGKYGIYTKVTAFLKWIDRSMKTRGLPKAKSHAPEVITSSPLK
T1 sequence (P00742 41-179 limits assumed): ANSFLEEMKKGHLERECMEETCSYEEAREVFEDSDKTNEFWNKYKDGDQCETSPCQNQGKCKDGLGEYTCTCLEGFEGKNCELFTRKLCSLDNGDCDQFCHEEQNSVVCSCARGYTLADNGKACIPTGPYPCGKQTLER

CC(=N)N1CCC(Oc2ccc(N(Cc3nc4cc(C(=N)N)ccc4n3CC(=O)N[C@@H](C)c3ccccc3)C(=O)c3ccc(C(=O)O)cc3)cc2)CC1 [Example 17, (S)-4-[N-[5-Amidino-1-(1-phenylethylcarbamoylmethyl)benzimidazole-2-ylmethyl]-N-[4-(1-acetimidoylpiperidin-4-yloxy)phenyl]carbamoyl]benzoic Acid Dihydrochloride]
inhibition at 10 mg/kg ([1]; 30 minutes): 46 ± 3% | inhibition at 10 mg/kg ([1]; 60 minutes): 34 ± 7% | inhibition at 10 mg/kg ([1]; 120 minutes): 20% | inhibition at 10 mg/kg ([1]; 180 minutes): 21 ± 5% | CT2 (drug concentration that doubled the PT) [2]: 2 µM
